Measured values from patent US9556217B2, “Amphiphilic compounds” (WISCONSIN ALUMNI RESEARCH FOUNDATION, priority 2012, dated 2017).

Experiments:
[1] = target: T1, Bacteriorhodopsin (bR) (Halobacterium salinarum, UniProt P02945); test: Bacteriorhodopsin stability (absorbance at 554 nm); settings: 0.2 wt % OTG+1.6 wt % agent, RT; for Maintaining the native structure of bR compared with conventional detergents: absorbance at 554 nm over 20 days
T1 construct: Frozen aliquots of purple membranes containing bR at 184 μM were thawed at room temperature; endogenous in cells; host or cells: purple membranes (native)
T1 sequence (P02945 14-261 limits assumed): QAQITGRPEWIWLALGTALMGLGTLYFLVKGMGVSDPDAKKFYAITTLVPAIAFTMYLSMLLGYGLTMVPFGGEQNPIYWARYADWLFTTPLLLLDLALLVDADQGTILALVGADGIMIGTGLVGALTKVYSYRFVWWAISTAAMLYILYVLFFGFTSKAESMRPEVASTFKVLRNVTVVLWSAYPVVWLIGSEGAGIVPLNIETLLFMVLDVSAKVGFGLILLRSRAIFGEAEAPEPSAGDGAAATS
Method: bR was extracted from the native purple membrane with 2.0 wt % octyl-β-D-thioglucoside (OTG) (see Bazzacco at al., Biomacromolecules 2009, 10, 3317-3326). Following ultracentrifugation to remove insoluble debris, the bR solution was diluted with amphiphile solutions to give 0.2 wt % OTG+1.6 wt % new agent or DDM. The absorbance of the solutions at 554 nm was measured periodically over 20 days. […] When the assay was conducted at a lower amphiphile concentration, 0.2 wt % OTG+0.8 wt % new agent or DDM, similar results were obtained (FIG. 3).
The procedure for the bR stability assay followed the protocol reported by Bazzacco and coworkers (Biomacromolecules 2009, 10, 3317-3326).
The procedure for the bR stability assay generally followed the reported protocol (Bazzacco et al., Biomacromolecules 2009, 10, 3317-3326). Frozen aliquots of purple membranes containing bR at 184 μM were thawed at room temperature and solubilized by using an octylthioglucoside (OTG) solution for 24 hr at 4° C. in a dark room. For this purpose, OTG (CMC=0.28 wt %) was used at 2.0 wt % in 10 mM sodium phosphate (pH 6.9). Membrane debris was then removed from the solubilized material via ultracentrifugation at 200,000 g at 4° C. for 20 min. The supernatant, including bR protein, was transferred into individual DDM, GLC, or GDN solutions, giving final concentration of OTG: new amphiphiles=0.2 wt %: 0.8 wt % (1:4) or 0.2 wt %:1.6 wt % (1:8). The stability of bR in each solution was monitored by measuring absorbance at 554 nm over 20 days.

[2] = target: T2, wild type β2AR (β2AR WT) (Homo sapiens, UniProt P07550); test: β2AR WT activity after extraction ([3H]-dihydroalprenolol binding); type: biochemical; settings: for β2AR WT initial activity: extracted with 1 wt % or 2 wt % amphiphile; for β2AR WT activity over 72 hours: solubilized samples stored at 4° C.
T2 construct: made in house; host or cells: Sf9 insect cells (baculovirus); lysed cells and membranes extracted directly with amphiphile
T2 sequence (P07550 whole entry): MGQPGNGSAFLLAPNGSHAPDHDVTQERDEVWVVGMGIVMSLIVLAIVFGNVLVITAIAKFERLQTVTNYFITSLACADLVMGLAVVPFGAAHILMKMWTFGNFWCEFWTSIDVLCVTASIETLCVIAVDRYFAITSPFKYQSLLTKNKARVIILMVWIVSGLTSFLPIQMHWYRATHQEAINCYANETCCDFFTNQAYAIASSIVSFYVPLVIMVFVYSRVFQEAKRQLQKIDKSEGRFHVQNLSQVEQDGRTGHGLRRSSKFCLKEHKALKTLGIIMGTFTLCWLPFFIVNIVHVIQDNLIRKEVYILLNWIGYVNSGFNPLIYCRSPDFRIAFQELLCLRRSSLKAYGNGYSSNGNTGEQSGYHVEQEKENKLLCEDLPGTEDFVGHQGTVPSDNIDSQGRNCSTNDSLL
Method: In the examples discussed above, conventional detergents such as DDM were used to extract IMPs from the membrane, and then in most cases the solution of detergent-solubilized protein was diluted with amphiphile-containing solutions to evaluate the new agents. With this approach it is possible that the small amount of residual conventional detergent could affect protein stability. To exclude this possibility, GLC-3 and GDN were used to extract wild type β2AR (β2AR WT) (Kobilka, Trends in Pharmacological Sciences 2011, 32, 213-218) from the membrane. Receptor activity was measured via a binding assay involving the antagonist [^3H]-dihydroalprenolol. […] GDN is therefore highly suitable for GPCR extraction.
A gene encoding amino-terminally FLAG epitope tagged β2AR was expressed in Sf9 cells by baculovirus, with no ligand present during culture. Cells were infected at a density of 4×10^6 cells/mL and then cultured for 48 hours prior to harvesting by centrifugation. Cells were resuspended and lysed by osmotic shock with a low ionic strength buffer (20 mM Tris pH 7.5, 1 mM EDTA). The lysed cells were aliquoted 35 mg per aliquot, then frozen. For extraction tests, 300 μL of solubilization buffer (20 mM HEPES pH 7.5, 100 mM NaCl) containing each amphiphile was added to each aliquot, which was then homogenized by pipet followed by grinding with a glass dounce tissue homogenizer. After two-hour incubation at 4° C., samples were centrifuged at maximum speed in a tabletop microcentrifuge to pellet insoluble material. Supernatant was removed and assayed for protein concentration by DC protein assay (Bio-Rad).
The amount of functional receptor was quantified by incubation for 1 hour with 10 nM 3H dihydroalprenolol. Samples were then separated by gel filtration over G-50 resin and radioactivity was quantified by liquid scintillation. Nonspecific binding was measured in the presence of 10 μM alprenolol. Assays were performed in triplicate at time points indicated. G-50 filtration was performed in buffer containing 20 mM HEPES pH 7.5, 100 mM NaCl, 10-fold CMC of the detergent tested. All binding assays were performed with ice cold buffers.

[3] = system: membrane proteins; test: Retention of extracted membrane proteins in soluble form in micelles (summary)
Source text: The amphiphiles were thus evaluated as membrane protein solubilizers and stabilizers and they compared very favorably with DDM, a standard reagent in the field. Compared to DDM, for example, one of the evaluated amphiphiles forms micelles at one-tenth of the concentration required for DDM. Compared with DDM, GDN performs similarly for extracting membrane proteins from membranes, and stably retains the proteins in a soluble form within the micelles for substantially longer (>3 weeks) than DDM. Such improved stability (without sacrificing extraction efficiency) is a valuable trait for research tool amphiphiles.
The amphiphiles described herein require lower concentrations than many commonly used surfactants to form stable micelles.

Structure (SMILES) | Maintaining the native structure of bR compared with conventional detergents [1] | β2AR WT initial activity ([2]; [3H]-dihydroalprenolol binding) | β2AR WT activity over 72 hours [2] | Time until stabilized protein activity began to decay [3] | β2AR WT initial activity, increase relative to DDM ([2]; [3H]-dihydroalprenolol binding) [fold] | Loss in bR protein integrity after 20 days ([1]; absorbance at 554 nm) | Time proteins are stably retained in soluble form within the micelles [3] [weeks]
CO[C@@H]1CC[C@@]2(C)[C@H](CC[C@@H]3[C@@H]2CC[C@]2(C)[C@@H]([C@H](C)CCCOCC(C)(CO[C@@H]4OC(CO)C(O[C@@H]5OC(CO)[C@@H](O)[C@H](O)C5O)[C@@H](O)C4O)CO[C@@H]4OC(CO)[C@@H](O[C@H]5OC(CO)[C@@H](O)[C@H](O)C5O)[C@H](O)C4O)CC[C@@H]32)C1 (stereo partly shown) [GLC-2] | more effective than conventional detergents OTG and DDM |  |  |  |  |  | 
CCCCCCCCCCCCO[C@@H]1O[C@H](CO)[C@@H](O[C@H]2O[C@H](CO)[C@@H](O)[C@H](O)[C@H]2O)[C@H](O)[C@H]1O [DDM, dodecyl-β-D-maltoside, reference compound] |  | low initial activity | rapidly decomposed | a few hours or a few days |  |  | 
C[C@@H]1CC[C@@]2(OC1)O[C@H]1C[C@H]3[C@@H]4CC=C5C[C@@H](OCCC(CO[C@@H]6OC(CO)[C@@H](O[C@H]7OC(CO)[C@@H](O)C(O)C7O)C(O)C6O)CO[C@@H]6OC(CO)[C@@H](O[C@H]7OC(CO)[C@@H](O)C(O)C7O)C(O)C6O)CC[C@]5(C)[C@H]4CC[C@]3(C)[C@@H]1[C@@H]2C (stereo partly shown) [GDN, glyco-diosgenin] | more effective than conventional detergents OTG and DDM | high initial activity | did not vary over 72 hours |  | > 3 | negligible loss in protein integrity | > 3
